According to ChEMBL document CHEMBL1201862, “PubChem BioAssay data set” (2004):
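Method: 48-hour compound exposure of cells in 96-well plates, five concentrations, linear interpolation of endpoints. The concentration for 50% growth inhibition is given as GI50.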 Calls of active or inactive are those of the source. Rule as the data show it: active = GI50 up to about 1.1 µM and inactive = higher.

Tests used:
Assay in all cases: growth of human tumour cells (NCI), 48 h
[1] = system: A549
[2] = system: ACHN
[3] = system: COLO 205
[4] = system: EKVX
[5] = system: HCT-15
[6] = system: HL-60
[7] = system: MOLT-4
[8] = system: Malme-3M
[9] = system: NCI-H226
[10] = system: NCI-H23
[11] = system: NCI-H460
[12] = system: NCI/ADR-RES
[13] = system: OVCAR-3
[14] = system: OVCAR-5
[15] = system: SF-268
[16] = system: SF-295
[17] = system: SF-539
[18] = system: SK-MEL-2
[19] = system: SK-MEL-5
[20] = system: SW-620

Row | Structure (SMILES) | GI50 [1] | GI50 [2] | GI50 [3] | GI50 [4] | GI50 [5] | GI50 [6] | GI50 [7] | GI50 [8] | GI50 [9] | GI50 [10] | GI50 [11] | GI50 [12] | GI50 [13] | GI50 [14] | GI50 [15] | GI50 [16] | GI50 [17] | GI50 [18] | GI50 [19] | GI50 [20]
1 | O=C1NC(c2cccc3ccccc23)Nc2ccc(Cl)cc21 (stereo not given) | 5.09 nM (active) | 2.68 nM (active) | 2.39 nM (active) | 2.35 nM (active) | 1.8 nM | 0.133 nM (active) | 1.74 nM (active) | 1.76 nM (active) | 4.32 nM (active) | 57.9 nM (active) | 3.8 nM (active) | 1.11 nM (active) | 1.6 nM (active) | 24.4 nM (active) | 3.5 nM (active) | 0.516 nM (active) | < 10 nM (active) | 2.04 nM (active) | 1.06 nM (active) | 1.68 nM (active)
2 | Clc1ccc(-c2nc3cc(C45CC6CC(CC(C6)C4)C5)ccc3[nH]2)cc1 | 14800 nM (inactive) | 51800 nM (inactive) | 7430 nM (inactive) | > 94200 nM (inactive) | 9460 nM | 2070 nM (inactive) | 551 nM (active) | 24500 nM (inactive) | > 65000 nM (inactive) | 52400 nM (inactive) | 17600 nM (inactive) | 20500 nM (inactive) | 21700 nM (inactive) | > 100000 nM (inactive) | > 100000 nM (inactive) | 57700 nM (inactive) | 51600 nM (inactive) | > 100000 nM (inactive) | 7180 nM (inactive) | 19300 nM (inactive)
3 | O=C1C=CC(O)C2C1CC13SSC4(CC5C(=O)C=CC(O)C5N4C1=O)C(=O)N23 (stereo not given) | 2520 nM (inactive) | 74.5 nM (active) | 155 nM (active) | 726 nM (active) | 140 nM | < 46.5 nM (active) | 10.9 nM (active) | 330 nM (active) | 308 nM (active) | 106 nM (active) | 681 nM (active) | 54.5 nM (active) | 84.5 nM (active) | 63.4 nM (active) | 847 nM (active) | 1090 nM (active) | 151 nM (active) | 796 nM (active) | 412 nM (active) | 32.4 nM (active)
4 | O=C(O)CC(CC(=O)O)C(=O)O [TRICARBALLYLIC ACID] | > 100000 nM (inactive) | > 100000 nM (inactive) | > 100000 nM (inactive) | > 100000 nM (inactive) | > 100000 nM | > 100000 nM (inactive) | > 100000 nM (inactive) | > 100000 nM (inactive) | > 100000 nM (inactive) | > 100000 nM (inactive) | > 100000 nM (inactive) | > 100000 nM (inactive) | > 100000 nM (inactive) | > 100000 nM (inactive) | > 100000 nM (inactive) | > 100000 nM (inactive) | > 100000 nM (inactive) | > 100000 nM (inactive) | > 100000 nM (inactive) | > 100000 nM (inactive)
